Assay results taken from patent US11938121B2, “Treatment of infections and biofilm formation using a cellulose synthase inhibitor” (Purdue Research Foundation, priority 2020, dated 2024).

Key:
[1] = molecular target: T1, GFP-CESA6c^P595S: GFP-tagged central cytoplasmic domain of AtCESA6 (cellulose synthase, CESA6) carrying missense mutation P595S, with a His-SUMO tag (Arabidopsis thaliana, UniProt Q94JQ6, P595S); assay: Microscale thermophoresis (MST) binding to purified GFP-tagged CESA6c^P595S (missense mutant)
T1 construct: We purified AtCESA6 central cytoplasmic domain carrying missense mutation P595S (CESA6c^P595S); His-SUMO; made in house; host or cells: E. coli
From the text: FIGS. 3A-3Q. […] FIG. 3A to FIG. 3G. […] FIG. 3A. Representative 5-day-old dark-grown Arabidopsis Col-0 seedlings grown on growth medium supplemented with different concentrations of ES20 or ES20-1. Scale bar: 1 cm. FIG. 3B. Quantification of hypocotyl length of 5-day-old dark-grown Arabidopsis Col-0 seedlings described in FIG. 3A. Data represent mean±SD (n=12 seedlings). FIG. 3C. Quantification of crystalline cellulose content in the hypocotyl cell walls of 7-day-old dark-grown Col-0 seedlings grown on growth medium supplemented with DMSO (0.1%), 1 μM ES20, or 1 μM ES20-1. Data represent mean±SD (n=3 biological replicates). FIG. 3D and FIG. 3E. […] FIG. 3D. Representative image of 6-day-old rice seedlings grown in sterile water supplemented with DMSO (0.1%), 20 μM ES20, or 20 μM ES20-1. Scale bar: 1 cm. FIG. 3E. Quantification of root length of rice seedlings as described in FIG. 3D. Data represent mean±SD (n=10 seedlings). FIG. 3F and FIG. 3G. […] FIG. 3F. […] Quantification of root length of maize seedlings as described in FIG. 3F. […] Quantitative analysis of the band intensity of YFP-AtCESA6 and SEC12 in ES20-1-treated samples divided by that of DMSO-treated samples in the DARTS assay described in FIG. 3H. […] Statistically significant differences in FIG. 3B were determined using one-way ANOVA followed by Tukey's multiple comparisons test. […]

[2] = molecular target: T2, GFP-CESA6c: GFP-tagged central cytosolic domain of AtCESA6 (cellulose synthase, CESA6) with a His-SUMO tag (Arabidopsis thaliana, UniProt Q94JQ6); assay: Microscale thermophoresis (MST) binding to purified GFP-tagged CESA6c (wild-type); settings: FIGS. 3K-3M, 100 nM GFP-CESA6c purified from E. coli, pH 7.5, 10 mM MgCl2, 0.05% Tween 20, 5% DMSO, triplicate, read-out: Kd, thermophoresis binding curve, GFP-CESA6c
T2 construct: His-SUMO; made in house; host or cells: E. coli
T2 sequence (Q94JQ6 322-868 limits assumed): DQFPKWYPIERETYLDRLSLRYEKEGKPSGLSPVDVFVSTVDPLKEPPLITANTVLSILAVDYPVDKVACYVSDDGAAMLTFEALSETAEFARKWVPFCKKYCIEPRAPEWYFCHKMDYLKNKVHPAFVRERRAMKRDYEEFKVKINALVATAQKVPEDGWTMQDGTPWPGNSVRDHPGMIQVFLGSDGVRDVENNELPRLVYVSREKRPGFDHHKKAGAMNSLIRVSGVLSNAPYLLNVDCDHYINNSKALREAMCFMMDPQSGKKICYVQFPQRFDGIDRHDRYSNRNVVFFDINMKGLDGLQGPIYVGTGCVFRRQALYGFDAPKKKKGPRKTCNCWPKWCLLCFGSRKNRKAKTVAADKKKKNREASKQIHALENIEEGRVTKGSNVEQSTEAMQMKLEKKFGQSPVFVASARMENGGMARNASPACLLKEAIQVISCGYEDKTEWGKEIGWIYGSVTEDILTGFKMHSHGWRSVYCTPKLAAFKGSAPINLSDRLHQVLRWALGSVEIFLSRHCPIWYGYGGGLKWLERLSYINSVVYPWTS
From the text: FIGS. 3A-3Q. […] FIG. 3A to FIG. 3G. […] FIG. 3A. Representative 5-day-old dark-grown Arabidopsis Col-0 seedlings grown on growth medium supplemented with different concentrations of ES20 or ES20-1. Scale bar: 1 cm. FIG. 3B. Quantification of hypocotyl length of 5-day-old dark-grown Arabidopsis Col-0 seedlings described in FIG. 3A. Data represent mean±SD (n=12 seedlings). FIG. 3C. Quantification of crystalline cellulose content in the hypocotyl cell walls of 7-day-old dark-grown Col-0 seedlings grown on growth medium supplemented with DMSO (0.1%), 1 μM ES20, or 1 μM ES20-1. Data represent mean±SD (n=3 biological replicates). FIG. 3D and FIG. 3E. […] FIG. 3D. Representative image of 6-day-old rice seedlings grown in sterile water supplemented with DMSO (0.1%), 20 μM ES20, or 20 μM ES20-1. Scale bar: 1 cm. FIG. 3E. Quantification of root length of rice seedlings as described in FIG. 3D. Data represent mean±SD (n=10 seedlings). FIG. 3F and FIG. 3G. […] FIG. 3F. Representative image of 6-day-old maize seedlings grown in sterile water supplemented with DMSO (0.1%), 20 μM ES20, or 20 μM ES20-1. Scale bar: 1 cm. FIG. 3G. Quantification of root length of maize seedlings as described in FIG. 3F. Data represent mean±SD (n=12 seedlings). […] FIG. 3H. Representative immunoblot from a DARTS assay of ES20-1 and YFP-AtCESA6. FIG. 3I. Quantitative analysis of the band intensity of YFP-AtCESA6 and SEC12 in ES20-1-treated samples divided by that of DMSO-treated samples in the DARTS assay described in FIG. 3H. Data represent mean±SD (n=6 biological replicates). FIGS. 3J-3N. […] FIG. 3J. Coomassie blue staining of purified GFP-tagged CESA6c with a His-SUMO tag (lane 2). FIGS. 3K, 3L, 3M, 3N. […] FIG. 3O. Coomassie blue staining of purified GFP-tagged CESA6c^P595S with a His-SUMO tag (lane 2). FIG. 3P and FIG. 3Q. […] Statistically significant differences in FIG. 3B were determined using one-way ANOVA followed by Tukey's multiple comparisons test. Lower-case letters represent ANOVA results for plants grown on medium with 0.1% DMSO, different concentrations of ES20 or ES20-1. […]

`Cc1ccccc1C(=O)NNC(=S)NC(=O)c1ccccc1` [ES20-1] gave a Kd [1] of 9.5 ± 6.3 µM and a Kd [2] of 4.4 ± 2.5 µM.
